Data from patent US20190038689A1, “TOPICAL SKIN COMPOSITIONS FOR TREATING ERYTHEMA OR SKIN INFLAMMATION” (MARY KAY INC., priority 2017, published 2019).

System: Nitric oxide synthases (NOS)
Test: Nitric Oxide Synthase Activity Assay (NO product measured as nitrite, improved Griess method)
Type: biochemical
Settings: for Nitric Oxide Synthase Activity: negative = reduction
Method: Nitric Oxide Synthase Activity Assay:
Nitric oxide synthases (NOS) are a family of enzymes catalyzing the production of nitric oxide (NO) from L-arginine. NOS is an important mediator of vasodilation in blood vessels. This bioassay was used to analyze the effect of saccharide isomerate extract, Myrothamnus flabellifolia extract, [6]-paradol, and a combination of algae extract and mugwort (Artemisia vulgaris) extract on the activity of NOS. The bioassay is performed in the presence or absence of the test compound, test extract, or positive control during production of NO by NOS. To measure the activity of NOS, the NO product is allowed to oxidize to nitrite and nitrate and then the nitrate is reduced to nitrite and measured using an improved Griess method. It was shown that saccharide isomerate extract, Myrothamnus flabellifolia extract, [6]-paradol, and a combination of algae extract and mugwort (Artemisia vulgaris) extract reduced the activity of NOS greater than the 1 μM SIN-1 positive control.

| SMILES | activity of NOS was reduced by (1 μM positive control) | Nitric Oxide Synthase Activity (1 μM, positive control) [%] | Nitric Oxide Synthase Activity (1% ingredient) [%] | activity of NOS was reduced by (rounded values of Table 2 (1% ingredient)) [%] |
| --- | --- | --- | --- | --- |
| [NH-]c1c[n+](N2CCOCC2)no1 [SIN-1] | approximately 29% | −28.7 |  |  |
| CCCCCCCC(=O)CCc1ccc(O)c(OC)c1 [SYMRELIEF ® S, 1-(4-hydroxy-3-methoxyphenyl)decan-3-one] |  |  | −46.617 | ~47 |
